ChEMBL document CHEMBL1955850, “Syntheses of structurally-simplified and fluorescently-labeled neovibsanin derivatives and analysis of their neurite outgrowth activity in PC12 cells” (2012)
Activity calls are given as the source filed them. The rule behind the calls is not given here.

Assays:
PC-12 [1] = assay: Neuritogenic activity in rat PC12 cells assessed as potentiation of 20 ng/ml NGF-induced neurite outgrowth at 10 uM; type: functional, cell-based
PC-12 [2] = assay: Neuritogenic activity in rat PC12 cells assessed as potentiation of 10 ng/ml NGF-induced neurite outgrowth at 1 uM after 4 days (reference value: 75.89 um); type: functional
PC-12 [3] = assay: Neuritogenic activity in rat PC12 cells assessed as potentiation of 10 ng/ml NGF-induced neurite outgrowth at 10 uM after 4 days NGF (reference value: 75.89 um); type: functional
PC-12 [4] = assay: Neuritogenic activity in rat PC12 cells assessed as potentiation of 10 ng/ml NGF-induced neurite outgrowth at 40 uM after 4 days (reference value: 75.89 um); type: functional
PC-12 [5] = assay: Neuritogenic activity in rat PC12 cells assessed as change in cell morphology at 40 uM up to 24 hrs in presence of 10 ng/ml NGF; type: functional, cell-based
PC-12 [6] = assay: Neuritogenic activity in rat PC12 cells assessed as elongation of prominences at 40 uM after 72 hrs in presence of 10 ng/ml NGF; type: functional, cell-based
PC-12 [7] = assay: Neuritogenic activity in rat PC12 cells assessed as appearance of short prominences at 40 uM after 48 hrs in presence of 10 ng/ml NGF; type: functional, cell-based
PC-12 [8] = assay: Neuritogenic activity in rat PC12 cells assessed as potentiation of 10 ng/ml NGF-induced neurite outgrowth at 40 uM after 96 hrs; type: functional, cell-based

SMILES: CO[C@]1(C)C[C@@H]2OCC3=CCCC[C@]32O1
- Activity (PC-12 [1]): Active
- Activity (PC-12 [2]): 99.5 um
- Activity (PC-12 [3]): 110.9 um
- Activity (PC-12 [4]): 125.5 um

SMILES: CCCCO[C@]1(C)C[C@@H]2OCC3=CCCC[C@]32O1
- Activity (PC-12 [3]): 55.82 um
- Activity (PC-12 [4]): 72.88 um

SMILES: CO[C@@]1(C)C[C@@H]2OCC3=CCCC[C@]32O1
- Activity (PC-12 [1]): Active
- Activity (PC-12 [2]): 91.58 um
- Activity (PC-12 [3]): 101.6 um
- Activity (PC-12 [4]): 122.4 um

SMILES: CC(C)=CCOC1(C)C[C@@H]2OCC3=CCCC[C@]32O1 (stereo partly drawn)
- Activity (PC-12 [1]): inactive

SMILES: C=CCOC1(C)C[C@@H]2OCC3=CCCC[C@]32O1 (stereo partly drawn)
- Activity (PC-12 [1]): inactive

SMILES: CCCCO[C@@]1(C)C[C@@H]2OCC3=CCCC[C@]32O1
- Activity (PC-12 [3]): 47.69 um
- Activity (PC-12 [4]): 61.81 um

SMILES: COC1(C)C[C@@H]2OCC3=CCC[C@@H](CCOC(=O)Cc4cc(=O)oc5cc(N(C)C)ccc45)[C@]32O1 (stereo partly drawn)
- Activity (PC-12 [5]): inactive
- Activity (PC-12 [6]): Active
- Activity (PC-12 [7]): Active
- Activity (PC-12 [8]): Active

SMILES: CCCO[C@]1(C)C[C@@H]2OCC3=CCCC[C@]32O1
- Activity (PC-12 [3]): 65.35 um
- Activity (PC-12 [4]): 76.62 um

SMILES: CCO[C@]1(C)C[C@@H]2OCC3=CCCC[C@]32O1
- Activity (PC-12 [3]): 92.24 um
- Activity (PC-12 [4]): 112.5 um

SMILES: CCO[C@@]1(C)C[C@@H]2OCC3=CCCC[C@]32O1
- Activity (PC-12 [3]): 86.03 um
- Activity (PC-12 [4]): 105.8 um

SMILES: CC1(OCc2ccccc2)C[C@@H]2OCC3=CCCC[C@]32O1 (stereo partly drawn)
- Activity (PC-12 [1]): inactive

SMILES: CCCO[C@@]1(C)C[C@@H]2OCC3=CCCC[C@]32O1
- Activity (PC-12 [3]): 75.46 um
- Activity (PC-12 [4]): 84.11 um

SMILES: CC1(OC/C=C/c2ccccc2)C[C@@H]2OCC3=CCCC[C@]32O1 (stereo partly drawn)
- Activity (PC-12 [1]): inactive
